Measured values reported in patent EP4230701A1, “4-STYRYL COUMARINS DERIVATIVES AS FLUORESCENT LABELS FOR BIOMOLECULES” (Universidade de Évora, priority 2022, dated 2023).
Where “and” joins values, the source holds several entries; their conditions need not be identical. Identical values can stand only once. Like-named read-outs stand apart in the source and are kept apart here.

Legend:
Assay type in all cases: physicochemical
[1] = UV-Vis absorption spectra in acetonitrile; conditions: for λabs: Absorption maxima in acetonitrile
Method: (§1) All starting materials and reagents were analytical grade, purchased from Aldrich and used without further purification. The organic solvents were dried over appropriate drying agents and distilled prior to use. UV-Vis absorption spectra were recorded on the Thermo Electron Spectrophotometer Corporation, model Nicolet Evolution 300, using acetonitrile (CH3CN) as solvent. Fluorescence spectra were recorded on a PerkinElmer Model LS 55 spectrophotometer. FTMS-ESI mass spectra were obtained on an Thermo Scientific Q Exactive Orbitrap Mass Spectrometer. Nuclear magnetic resonance (NMR) spectra were recorded at 400 MHz for ^1H NMR and at 100 MHz for ^13C NMR, on a Brucker Advance III spectrometer. For NMR spectra, deuterated chloroform (CDCl3) was used as solvent. The chemical shift (π) in ppm; coupling constants (J); relative intensity is indicated by the number of protons (H); multiplicities are indicated by singlet (s), doublet (d), double-doublet (dd), triplet (t), quadruple (q) and multiplet (m); coupling constants are given in Hertz (Hz).
as §1, with “400MHz” for “400 MHz”, “100MHz” for “at 100 MHz”, “^13C,” for “^13C NMR,”, “(CDCl3) or deuterated methanol (CD3OD)” for “(CDCl3)”, “(δ)” for “(π)”

[2] = Fluorescence quantum yield in ethanol against 7-diethylamino-4-methylcoumarin as standard
[3] = Fluorescence emission spectra in acetonitrile; conditions: Emission maxima in acetonitrile
Method: as §1
as §1, with “400MHz” for “400 MHz”, “100MHz” for “at 100 MHz”, “^13C,” for “^13C NMR,”, “(CDCl3) or deuterated methanol (CD3OD)” for “(CDCl3)”, “(δ)” for “(π)”

[4] = Molar extinction coefficient at longest wavelength transition
[5] = Molar extinction coefficient at longest wavelength transition (Table 5)
[6] = Fluorescence quantum yield in ethanol, standard 7-diethylamino-4-methylcoumarin (ΦF = 0.73 in ethanol)

bathochromic shift ([1]; compared with its precursor (2))	Compound	λabs [1]	ε [1, 4]	ε [1, 5]	ΦF [2, 6]	λem [3]	visible shoulder (lowest energy S0 → S1 transition) ([1]; experimental absorption spectrum)	ΦF [2]	bathochromic shift ([1]; compared with its precursor (1))
–	CCN(CC)c1ccc2c(C)cc(=O)oc2c1 [Compound 1, 7-diethylamino-4-methylcoumarin, reference compound]	371 nm	22910 cm^-1M^-1	22910 cm^-1m^-1	0.73	434 nm	–	–	–
more than 100 nm	CCN(CC)c1ccc2c(c1)OC(=C(C#N)C#N)C=C2C [Compound 3, 2-(7-(diethylamino)-4-methyl-2H-chromen-2-ylidene)malononitrile]	477 nm	38000 cm^-1M^-1	–	0.05	519 nm	–	–	–
–	CCN(CC)c1ccc2c(c1)OC(=C(C#N)C#N)C=C2/C=C/c1ccc(C(=O)OC)cc1 [Compound 4]	520 nm	19000 cm^-1M^-1	–	0.04 and 0.08	620 nm	–	–	–
–	CCN(CC)c1ccc2c(c1)OC(=C(C#N)C#N)C=C2/C=C/c1ccccc1 [Compound 5]	516 nm	17000 cm^-1M^-1	–	0.16	603 nm	–	–	–
–	CCN(CC)c1ccc2c(c1)OC(=C(C#N)C#N)C=C2/C=C/c1ccc(N(C)C)cc1 [Compound 6, (E)-2-(7-(diethylamino)-4-(4-(dimethylamine)styryl)-2H-chromen-2ylidene)malononitrile]	496 nm	34000 cm^-1M^-1	–	–	597 nm	around 536 nm	0.95 and 0.98	–
–	CCN(CC)c1ccc2c(c1)OC(=C(C#N)C#N)C=C2/C=C/c1ccc(OC)cc1 [Compound 7, (E)-2-(7-(diethylamino)-4-(4-methoxystyryl)-2H-chromen-2-ylidene)malononitrile]	522 nm	24000 cm^-1M^-1	–	0.20	602 nm	–	–	–
–	CCN(CC)c1ccc2c(c1)OC(=C(C#N)C#N)C=C2/C=C/c1ccc(OCCCCCC(=O)O)cc1 [Compound 8, (E)-6-(4-(2-(2-(dicyanomethylene)-7-(diethylamino)-2H-chromen-4yl)vinyl)phenoxy)hexanoic acid]	519 nm	24000 cm^-1M^-1	–	0.28	596 nm	–	–	–
–	CCN(CC)c1ccc2c(c1)OC(=C(C#N)C#N)C=C2/C=C/c1ccc(OCCCCCC(=O)ON2C(=O)CCC2=O)cc1 [Compound 9, (E)-2,5-dioxopyrrolidin-1-yl 6-(4-(2-(2-(dicyanomethylene)-7-(diethylamino)-2Hchromen-4-yl)vinyl)phenoxy)hexanoate]	523 nm	24000 cm^-1M^-1	–	0.29	597 nm	–	–	–
–	CCN(CC)c1ccc2c(C)cc(=[N+]3CCCCC3)oc2c1.O=[N+]([O-])[O-] [Compound 10, 1-(7-(diethylamino)-4-methyl-2H-chromen-2-ylidene)-piperidin-1-ium nitrate]	437 nm	–	21000 cm^-1m^-1	0.14	490 nm	–	–	> 66 nm
–	CCN(CC)c1ccc2c(/C=C/c3ccc(C(=O)OC)cc3)cc(=[N+]3CCCCC3)oc2c1.O=[N+]([O-])[O-] [Compound 11, (E)-1-(7-(diethylamino)-4-(4-(methoxycarbonyl)styryl)-2H-chromen-2ylidene)piperidin-1-ium nitrate]	484 nm	18000 cm^-1M^-1	18000 cm^-1m^-1	0.08	609 nm	–	–	–
–	CCN(CC)c1ccc2c(/C=C/c3ccccc3)cc(=[N+]3CCCCC3)oc2c1.O=[N+]([O-])[O-] [Compound 12, (E)-1-(7-(diethylamino)-4-styryl-2H-chromen-2-ylidene)-piperidin-1-ium nitrate]	467 nm	–	17000 cm^-1m^-1	0.34	525 nm	–	–	–
–	CCN(CC)c1ccc2c(/C=C/c3ccc(N(C)C)cc3)cc(=[N+]3CCCCC3)oc2c1.O=[N+]([O-])[O-] [Compound 13, (E)-1-(7-(diethylamino)-4-(4-(dimethylamino)styryl)-2H-chromen-2ylidene)piperidin-1-ium nitrate]	485 nm	39000 cm^-1M^-1	39000 cm^-1m^-1	–	608 nm	–	–	–
–	CCN(CC)c1ccc2c(/C=C/c3ccc(OC)cc3)cc(=[N+]3CCCCC3)oc2c1.O=[N+]([O-])[O-] [Compound 14, (E)-1-(7-(diethylamino)-4-(4-methoxystyryl)-2H-chromen-2-ylidene)piperidin-1-ium nitrate]	410 nm	–	30000 cm^-1m^-1	–	578 nm	–	–	–
–	CCN(CC)c1ccc2c(/C=C/c3ccc(OCCCCCC(=O)O)cc3)cc(=[N+]3CCCCC3)oc2c1.O=[N+]([O-])[O-] [Compound 15, (E)-1-(4-(4-((5-carboxypentyl)oxy)styryl)-7-(diethylamino)-2H-chromen-2ylidene)piperidin-1-ium nitrate]	406 nm	–	30000 cm^-1m^-1	0.90	578 nm	–	–	–
–	CCN(CC)c1ccc2c(/C=C/c3ccc(OCCCCCC(=O)ON4C(=O)CCC4=O)cc3)cc(=[N+]3CCCCC3)oc2c1.O=[N+]([O-])[O-] [Compound 16, (E)-1-(7-(diethylamino)-4-(4-((6-((2,5-dioxopyrrolidin-1-yl)oxy)-6oxohexyl)oxy)styryl)-2H-chromen-2-ylidene)piperidin-1-ium nitrate]	404 nm	–	30000 cm^-1m^-1	0.92	577 nm	–	–	–
